According to patent publication US9957265B2, “N-(2-cyano heterocyclyl) pyrazolo pyridones as janus kinase inhibitors” (Merck Sharp & Dohme Corp., priority 2013, dated 2018):
Read-outs that look alike come from different tables or passages of the source.

Legend:
JAK1 = JAK1 (Homo sapiens (Human), UniProt P23458); experiment: Jak Biochemical HTRF Assay (JAK1); conditions: recombinant GST-tagged catalytic domain, [ATP] 31.8 μM, unit not given (compound concentrations tested given in nM)
Excerpt: Jak Biochemical HTRF Assay Protocol
Subsequent reagent additions employed an Agilent Bravo.

JAK2 = JAK2 (Homo sapiens (Human), UniProt O60674); experiment: Jak Biochemical HTRF Assay (JAK2)
Description: The ability of compounds to inhibit the activity of JAK1, JAK2, JAK3, and TYK2 was measured using a recombinant purified GST-tagged catalytic domain for each enzyme (Invitrogen JAK1 #M4290, JAK2 #M4290, JAK3 #M4290, TYK2 #M4290) in an HTRF format biochemical assay. […] Subsequent reagent additions employed an Agilent Bravo. […] After equilibration, 2 μL of 10×ATP in 1× assay buffer was added to initiate the kinase reaction and the plates were shaken and then incubated at room temperature for 120 minutes. […] After normalization to untreated controls, the percent inhibition of the HTRF signal at each compound concentration was calculated. The plot of percent inhibition versus the log of compound concentration was fit with a 4-parameter dose response equation to calculate IC50 values.
Final reaction conditions were:

[1] = JAK2 IC50, recombinant GST-tagged catalytic domain, [ATP] 8.5 μM, unit not given (compound concentrations tested given in nM)
[2] = read-out: JAK2 IC50, recombinant GST-tagged catalytic domain, [ATP] 8.5 μM, unit not given (compound concentrations tested given in nM)

Chain of JAK2 (O60674 849-1124): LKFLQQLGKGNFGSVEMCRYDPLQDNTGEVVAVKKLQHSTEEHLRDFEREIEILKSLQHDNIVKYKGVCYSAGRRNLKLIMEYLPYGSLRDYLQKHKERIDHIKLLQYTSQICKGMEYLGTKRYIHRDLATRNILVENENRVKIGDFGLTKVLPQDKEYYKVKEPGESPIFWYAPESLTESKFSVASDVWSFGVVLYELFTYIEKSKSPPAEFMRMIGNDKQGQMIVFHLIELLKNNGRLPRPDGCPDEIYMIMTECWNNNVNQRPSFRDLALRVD
Chain of JAK1 (P23458 875-1153): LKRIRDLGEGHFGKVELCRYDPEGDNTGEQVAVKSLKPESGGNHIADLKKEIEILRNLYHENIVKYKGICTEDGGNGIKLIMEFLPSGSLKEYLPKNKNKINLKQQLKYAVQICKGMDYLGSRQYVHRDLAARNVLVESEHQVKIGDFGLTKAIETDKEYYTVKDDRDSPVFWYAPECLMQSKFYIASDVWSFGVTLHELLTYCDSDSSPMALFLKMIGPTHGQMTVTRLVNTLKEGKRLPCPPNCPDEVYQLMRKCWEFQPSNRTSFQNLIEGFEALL

| SMILES | IC50 (JAK1) [nM] | IC50 (JAK2; [1]) [nM] | IC50 (JAK2; [2]) [nM] |
| --- | --- | --- | --- |
| CC(C)NC1(C)C(=O)Nc2cc(Nc3nn(C4COCC[C@@H]4C#N)c4cc[nH]c(=O)c34)ccc21 (single isomer, unassigned) [Example 1-100, (3R,4S)-3-[3-({(3R or 3S)-3-methyl-3-[(1-methylethyl)amino]-2-oxo-2,3-dihydro-1H-indol-6-yl}amino)-4-oxo-4,5-dihydro-1H-pyrazolo[4,3-c]pyridin-1-yl] tetrahydro-2H-pyran-4-carbonitrile] | 0.06 | 0.05 |  |
| CC(C)CN1Cc2ccc(Nc3nn([C@H]4COCC[C@@H]4C#N)c4cc[nH]c(=O)c34)cc2C1 [Example 1-14, (3R,4S)-3-(3-{[2-(2-methylpropyl)-2,3-dihydro-1H-isoindol-5-yl]amino}-4-oxo-4,5-dihydro-1H-pyrazolo[4,3-c]pyridin-1-yl)tetrahydro-2H-pyran-4-carbonitrile] | 0.22 |  | 0.41 |
| COc1cc(Nc2nn([C@H]3COCC[C@@H]3C#N)c3cc[nH]c(=O)c23)ccc1F [Example 1-17, (3R,4S)-3-{3-[(4-fluoro-3-methoxyphenyl)amino]-4-oxo-4,5-dihydro-1H-pyrazolo[4,3-c]pyridin-1-yl}tetrahydro-2H-pyran-4-carbonitrile] | 0.09 |  | 2.52 |
| N#C[C@H]1CCOC[C@@H]1n1nc(Nc2ccc(C(N3CCSCC3)C(F)(F)F)cc2)c2c(=O)[nH]ccc21 (single isomer, unassigned) [Example 2-6, (3R,4S)-3-[4-oxo-3-({4-[(1R or 1S)-2,2,2-trifluoro-1-thiomorpholin-4-ylethyl]phenyl}amino)-4,5-dihydro-1H-pyrazolo[4,3-c]pyridin-1-yl]tetrahydro-2H-pyran-4-carbonitrile] | 0.21 | 0.24 |  |
| CC1(C)CC1NC(c1ccc(Nc2nn([C@H]3COCC[C@@H]3C#N)c3cc[nH]c(=O)c23)cc1)C(F)(F)F (single isomer, unassigned) [Example 1-47, (3R,4S)-3-{3-[(4S or 4R-{1S or 1R-[(2,2-dimethylcyclopropyl)amino]-2,2,2-trifluoroethyl}phenyl)amino]-4-oxo-4,5-dihydro-1H-pyrazolo[4,3-c]pyridin-1-yl}tetrahydro-2H-pyran-4-carbonitrile] | 0.27 | 0.43 |  |
| N#C[C@H]1CCOC[C@@H]1n1nc(Nc2ccc3c(c2)CN(CC(F)(F)F)S3(=O)=O)c2c(=O)[nH]ccc21 [Example 1-62, (3R,4S)-3-(3-{[1,1-dioxido-2-(2,2,2-trifluoroethyl)-2,3-dihydro-1,2-benzothiazol-5-yl]amino}-4-oxo-4,5-dihydro-1H-pyrazolo[4,3-c]pyridin-1-yl)tetrahydro-2H-pyran-4-carbonitrile] | 0.05 |  | 0.29 |
| CN(C)S(=O)(=O)c1ccc(Nc2nn([C@H]3COCC[C@@H]3C#N)c3cc[nH]c(=O)c23)cc1 [Example 1-6, 4-((1-((3R,4S)-4-cyanotetrahydro-2H-pyran-3-yl)-4-oxo-4,5-dihydro-1H-pyrazolo[4,3-c]pyridin-3-yl)amino)-N,N-dimethyl-benzenesulfonamide] | 0.07 |  | 0.21 |
| CN1Cc2cc(Nc3nn([C@H]4COCC[C@@H]4C#N)c4cc[nH]c(=O)c34)ccc2S1(=O)=O [Example 1-4, (3R,4S)-3-(3-((2-methyl-1,1-dioxido-2,3-dihydrobenzo[d]isothiazol-5-yl)amino)-4-oxo-4,5-dihydro-1H-pyrazolo[4,3-c]pyridin-1-yl)tetrahydro-2H-pyran-4-carbonitrile] | 0.04 |  | 0.34 |
| CC1(C)CC1NC(c1ccc(Nc2nn([C@H]3COCC[C@@H]3C#N)c3cc[nH]c(=O)c23)cc1)C(F)(F)F (single isomer, unassigned) [Example 1-49, (3R,4S)-3-{3-[(4S or 4R-{1S or 1R-[(2,2-dimethylcyclopropyl)amino]-2,2,2-trifluoroethyl}phenyl)amino]-4-oxo-4,5-dihydro-1H-pyrazolo[4,3-c]pyridin-1-yl}tetrahydro-2H-pyran-4-carbonitrile] | 0.18 | 0.3 |  |
